# Legend:
# [1] = tested on: Human cerebral endothelial cells (HCEC); assay: Capillary tube formation in Matrigel, S100A4 induced angiogenesis; format: cell-based; settings: primary HCEC in Matrigel
# Description: Human cerebral endothelial cells (HCEC) were isolated using previously described protocols (Stanimirovic, D., P. Morley, et al. (1996). “Angiotensin II-induced fluid phase endocytosis in human cerebromicrovascular endothelial cells is regulated by the inositol-phosphate signaling pathway.” J Cell Physiol 169(3): 455-67.). Purity of HCEC cultures generated by these procedures was routinely assessed by the immunocytochemical staining for Factor VIII-related antigen and the lack of staining for smooth muscle β-actin, and is estimated to be >95%. The morphological, phenotypic, biochemical and functional characteristics of these HCEC cultures have been described in detail previously (Muruganandam, A., L. M Herx, et al. (1997). “Development of immortalized human cerebromicrovascular endothelial cell line as an in vitro model of the human blood-brain barrier.” Faseb J 11(13): 1187-97).
# HCEC were seeded (8×10^4 cells) on a semi-solid basement membrane matrix, Matrigel™ (Collaborative Biomedical Products, Bedford, Mass.)-coated 24-well plates and exposed to serum-free media containing various treatments. […] Confocal apertures for each recorded wavelength were adjusted to a full width half maximum of 20 μm. […] Eight to 32 individual optical sections were collected and the average was calculated. […]
# [2] = target: T1, S100A4 (Homo sapiens, UniProt P26447); assay: Modulation of S100A4 dependent tPA-mediated conversion of plasminogen to plasmin by peptides and chimera; format: biochemical
# T1 construct: GST (N); made in house; host or cells: E. coli ER2507
# T1 sequence (P26447 whole entry): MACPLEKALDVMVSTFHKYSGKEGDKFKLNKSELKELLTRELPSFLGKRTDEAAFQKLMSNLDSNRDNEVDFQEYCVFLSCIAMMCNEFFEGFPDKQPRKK
# Description: The effects of peptide SEQ ID 6, peptide SEQ ID 38 and chimera SEQ ID 39 on acceleration oft-PA-mediated conversion of plasminogen to plasmin induced by S100A4 were measured. The kinetics of t-PA-mediated plasminogen activation were determined by measuring the amidolytic activity of plasmin formed during activation of plasminogen. All the experiments were done in 100 μl volume in 96-well plates in triplicates. Glu-plasminogen (Calbiochem) at the concentration of 100 nM was preincubated at 25° C. for 1 h in the presence or absence of 1 μM recombinant S100A4 in a buffer consisting of 50 mM Tris-HCl, pH 7.4, 100 mM NaCl and 5 mM CaCl2 or 5 mM EGTA. In some experiments, different concentrations of peptides or chimera were preincubated together with proteins. The reaction was initiated by addition of 5 nM t-PA (Calbiochem) and 125 μM chromogenic plasmin substrate, Chromozym PL (Roche). The reactions were monitored at 405 nm for 1.5 h in a SPECTRAmax PLUS^384 microplate spectrophotometer (Molecular Devices) under control of the SOFTmax PRO kinetic program (Molecular Devices). The initial rates of plasmin generation, during the first 10-15 min, were calculated using linear regression analysis of plots of A405 nm versus time 2. The initial rates of plasmin generation were reported in units (K) of A405 nm/min^2×10^3. […] The titration data were analyzed with the four-parameter logistic equation K=(A−D)/(1+(x/C)^B)D. If A, asymptotic minimum, =0, this equation is converted to the Michaelis-Menten equation K=D/(1+(C/[S])^B), where [S] is substrate concentration, D=Vmax, C=Km, and B is the Hill coefficient.
# Peptides SEQ ID 6 and SEQ ID 38 inhibited the accelerating effect of S100A4 on t-PA-dependent conversion of plasminogen to plasmin in concentration—dependent manner.
# On the other hand, chimera SEQ ID 39 additionally accelerated plasmin formation already accelerated by S100A4.
substance,measurement,setting,value
"Ac-AGLREVYGASLASYMERW-NH2 [SEQ ID 6, Ac-AGLREVYGASLASYMERW-amide]",inhibition of S100A4-induced formation of capillary-like tubes,[1],completely inhibit
same,effect on S100A4 acceleration at 15 μM peptide,[2]; 15 μM peptide,totally neglected the effect of S100A4
same,IC50,"[2]; peptides titrated 0.1-100 μM, 1 μM S100A4, read-out: IC50 for inhibition of accelerating effect of S100A4 on t-PA-dependent conversion of plasminogen to plasmin",6 µM

# Reference: patent publication US20050277575A1, “Therapeutic compositions and methods for treating diseases that involve angiogenesis” (priority 2004, published 2005)
